Columns and labels:
[1] = system: bedstraw; assay: Test B pre/postemergence bedstraw; type: in vivo, Galium aparine
Outline: (§1)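 Herbicidal effect was estimated by eye on a ten-point control scale after plants spent twelve to sixteen days in a greenhouse following soil or foliar treatment. Foliar sprays targeted plants at one to four leaves; all doses were formulated in a non-phytotoxic solvent with surfactant.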

[2] = system: blackgrass; assay: Test B pre/postemergence blackgrass; type: in vivo, Alopecurus myosuroides
Outline: as §1

[3] = system: surinam grass; assay: Test B pre/postemergence surinam grass; type: in vivo, Brachiaria decumbens
Outline: as §1

[4] = system: cocklebur; assay: Test B pre/postemergence cocklebur; type: in vivo, Xanthium strumarium
Outline: as §1

[5] = system: corn; assay: Test B pre/postemergence corn; type: in vivo, Zea mays
Outline: as §1

[6] = system: crabgrass; assay: Test B pre/postemergence crabgrass; type: in vivo, Digitaria sanguinalis
Outline: as §1

[7] = system: giant foxtail; assay: Test B pre/postemergence giant foxtail; type: in vivo, Setaria faberii
Outline: as §1

[8] = system: morningglory; assay: Test B pre/postemergence morningglory; type: in vivo, Ipomoea hederacea
Outline: as §1

[9] = system: pigweed; assay: Test B pre/postemergence pigweed; type: in vivo, Amaranthus retroflexus
Outline: as §1

[10] = system: soybean; assay: Test B pre/postemergence soybean; type: in vivo, Glycine max
Outline: as §1

[11] = system: sugar beet; assay: Test B pre/postemergence sugar beet; type: in vivo, Beta vulgaris
Outline: as §1

[12] = system: wild oat; assay: Test B pre/postemergence wild oat; type: in vivo, Avena fatua
Outline: as §1

[13] = system: purple nutsedge; assay: Test B pre/postemergence purple nutsedge; type: in vivo, Cyperus rotundus
Outline: as §1

[14] = system: rice; assay: Test B flood test rice; type: in vivo, Oryza sativa
Outline: (§2)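 Flood test on plants grown to the 2-leaf stage; treated plants kept in greenhouse twelve to sixteen days, then visually rated against controls on a 0 (no effect) to 10 (complete control) scale.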

[15] = system: smallflower flatsedge; assay: Test B flood test smallflower flatsedge; type: in vivo, Cyperus difformis
Outline: as §2

[16] = system: duck salad; assay: Test B flood test duck salad; type: in vivo, Heteranthera limosa
Outline: as §2

[17] = Preemergence, Rate 62 g/ha, scale of 0 to 10 where 0 is no effect and 10 is complete control
[18] = Preemergence, Rate 125 g/ha, 0 is no effect, 10 is complete control
[19] = Preemergence, Rate 250 g/ha, scale 0 to 10, 0 is no effect, 10 is complete control
[20] = Preemergence, Rate 500 g/ha, scale of 0 to 10 where 0 is no effect and 10 is complete control
[21] = Rate 62 g/ha, Postemergence, scale of 0 to 10 where 0 is no effect and 10 is complete control
[22] = Rate 125 g/ha, Postemergence, scale 0 to 10
[23] = Rate 500 g/ha, Postemergence, scale 0 to 10
[24] = Rate 62 g/ha, headed Pre-emergence (flood test species), scale 0 to 10 (0 no effect, 10 complete control)
[25] = Rate 125 g/ha, Pre-emergence, flood test species, scale 0 to 10 where 0 is no effect and 10 is complete control
[26] = Rate 250 g/ha, Pre-emergence, flood-test species, scale 0 to 10, 0 is no effect, 10 is complete control
[27] = Rate 500 g/ha, Pre-emergence, flood test species, scale 0 to 10 (0 no effect, 10 complete control)

CC(C)N(C(=O)n1oc(=O)n(Cc2ccco2)c1=O)c1ccc(Cl)cc1 [Compound 206]
1: Morningglory plant response rating [8, 21] | Morningglory plant response rating [8, 22] | Soybean plant response rating (0 to 10 scale) [10, 18] | Soybean plant response rating [10, 22]
2: Plant response rating (0 to 10; 0 is no effect, 10 is complete control), Morningglory ([8]; Rate 250 g/ha, Postemergence) | Plant response rating (0 to 10; 0 is no effect, 10 is complete control), Soybean ([10]; Rate 250 g/ha, Postemergence) | Soybean plant response rating [10, 23]
3: Crabgrass plant response rating [6, 19] | Giant foxtail plant response rating (0 to 10 scale) [7, 18] | Plant response rating, Redroot pigweed [9, 20] | Plant response rating (0 to 10; 0 is no effect, 10 is complete control), Redroot pigweed ([9]; Rate 250 g/ha, Postemergence)
5: Morningglory plant response rating [8, 23]
9: Plant response rating, Giant foxtail [7, 20]
8: Plant response rating, Crabgrass [6, 20] | Giant foxtail plant response rating [7, 19]
0: Bedstraw plant response rating [1, 17] | Bedstraw plant response rating (0 to 10 scale) [1, 18] | Bedstraw plant response rating [1, 19] | Plant response rating, Bedstraw [1, 20] | Bedstraw plant response rating [1, 21] | Bedstraw plant response rating [1, 22] | Plant response rating (0 to 10; 0 is no effect, 10 is complete control), Bedstraw ([1]; Rate 250 g/ha, Postemergence) | Bedstraw plant response rating [1, 23] | Blackgrass plant response rating [2, 17] | Blackgrass plant response rating (0 to 10 scale) [2, 18] | Blackgrass plant response rating [2, 19] | Plant response rating, Blackgrass [2, 20] | Blackgrass plant response rating [2, 21] | Blackgrass plant response rating [2, 22] | Plant response rating (0 to 10; 0 is no effect, 10 is complete control), Blackgrass ([2]; Rate 250 g/ha, Postemergence) | Blackgrass plant response rating [2, 23] | B. signalgrass plant response rating [3, 17] | B. signalgrass plant response rating (0 to 10 scale) [3, 18] | B. signalgrass plant response rating [3, 19] | Plant response rating, B. signalgrass [3, 20] | B. signalgrass plant response rating [3, 21] | B. signalgrass plant response rating ([3]; Rate 125 g/ha, Postemergence, scale 0 (no effect) to 10 (complete control)) | Plant response rating, B. signalgrass ([3]; Rate 250 g/ha, Postemergence, scale 0 to 10, 0 is no effect, 10 is complete control) | B. signalgrass plant response rating ([3]; Rate 500 g/ha, Postemergence, scale 0 to 10, 0 no effect, 10 complete control) | Cocklebur plant response rating [4, 17] | Cocklebur plant response rating (0 to 10 scale) [4, 18] | Cocklebur plant response rating [4, 19] | Plant response rating, Cocklebur [4, 20] | Cocklebur plant response rating [4, 21] | Cocklebur plant response rating [4, 22] | Plant response rating (0 to 10; 0 is no effect, 10 is complete control), Cocklebur ([4]; Rate 250 g/ha, Postemergence) | Cocklebur plant response rating [4, 23] | Corn plant response rating [5, 17] | Corn plant response rating (0 to 10 scale) [5, 18] | Corn plant response rating [5, 19] | Plant response rating, Corn [5, 20] | Corn plant response rating [5, 21] | Corn plant response rating [5, 22] | Plant response rating (0 to 10; 0 is no effect, 10 is complete control), Corn ([5]; Rate 250 g/ha, Postemergence) | Corn plant response rating [5, 23] | Crabgrass plant response rating [6, 17] | Crabgrass plant response rating (0 to 10 scale) [6, 18] | Crabgrass plant response rating [6, 21] | Crabgrass plant response rating [6, 22] | Plant response rating (0 to 10; 0 is no effect, 10 is complete control), Crabgrass ([6]; Rate 250 g/ha, Postemergence) | Crabgrass plant response rating [6, 23] | Giant foxtail plant response rating [7, 17] | Giant foxtail plant response rating [7, 21] | Giant foxtail plant response rating [7, 22] | Plant response rating (0 to 10; 0 is no effect, 10 is complete control), Giant foxtail ([7]; Rate 250 g/ha, Postemergence) | Giant foxtail plant response rating [7, 23] | Morningglory plant response rating [8, 17] | Morningglory plant response rating (0 to 10 scale) [8, 18] | Morningglory plant response rating [8, 19] | Plant response rating, Morningglory [8, 20] | Redroot pigweed plant response rating [9, 17] | Redroot pigweed plant response rating (0 to 10 scale) [9, 18] | Redroot pigweed plant response rating [9, 19] | Redroot pigweed plant response rating [9, 21] | Redroot pigweed plant response rating [9, 22] | Redroot pigweed plant response rating [9, 23] | Soybean plant response rating [10, 17] | Soybean plant response rating [10, 19] | Plant response rating, Soybean [10, 20] | Soybean plant response rating [10, 21] | Sugarbeets plant response rating [11, 17] | Sugarbeets plant response rating (0 to 10 scale) [11, 18] | Sugarbeets plant response rating [11, 19] | Plant response rating, Sugarbeets [11, 20] | Sugarbeets plant response rating [11, 21] | Sugarbeets plant response rating [11, 22] | Plant response rating (0 to 10; 0 is no effect, 10 is complete control), Sugarbeets ([11]; Rate 250 g/ha, Postemergence) | Sugarbeets plant response rating [11, 23] | Wild oats plant response rating [12, 17] | Wild oats plant response rating [12, 19] | Plant response rating, Wild oats [12, 20] | Wild oats plant response rating [12, 21] | Wild oats plant response rating [12, 22] | Plant response rating (0 to 10; 0 is no effect, 10 is complete control), Wild oats ([12]; Rate 250 g/ha, Postemergence) | Nutsedge plant response rating [13, 17] | Nutsedge plant response rating (0 to 10 scale) [13, 18] | Nutsedge plant response rating [13, 19] | Plant response rating, Nutsedge [13, 20] | Nutsedge plant response rating [13, 21] | Nutsedge plant response rating [13, 22] | Plant response rating (0 to 10; 0 is no effect, 10 is complete control), Nutsedge ([13]; Rate 250 g/ha, Postemergence) | Nutsedge plant response rating [13, 23] | Rice plant response rating [14, 24] | Rice plant response rating [14, 25] | Rice plant response rating [14, 26] | Rice plant response rating [14, 27] | S. Flatsedge plant response rating [15, 24] | S. Flatsedge plant response rating [15, 25] | S. Flatsedge plant response rating [15, 26] | S. Flatsedge plant response rating [15, 27] | Ducksalad plant response rating [16, 24] | Ducksalad plant response rating [16, 25] | Ducksalad plant response rating [16, 26] | Ducksalad plant response rating [16, 27]

— patent publication US6737383B1, “Herbicidal oxadiazolidines” (priority 1999, dated 2004)
